# ChEMBL document CHEMBL1201862, “PubChem BioAssay data set” (2004)
#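 Assay format: 96-well plates, 48-hour exposure. GI50: concentration for 50% inhibition of growth.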 Active and inactive are the calls of the source. Rule as the data show it: active = GI50 up to about 1.1 µM and inactive = higher.
# How the values were obtained:
# Experiment in all cases: inhibition of tumour cell growth, NCI panel, 48 h
# [1] = test system: CCRF-CEM
# [2] = test system: COLO 205
# [3] = test system: EKVX
# [4] = test system: HCC 2998
# [5] = test system: HOP-92
# [6] = test system: K562
# [7] = test system: MDA-MB-435
# [8] = test system: OVCAR-3
# [9] = test system: PC-3
# [10] = test system: RPMI-8226
# [11] = test system: RXF 393
# [12] = test system: SK-MEL-28
# [13] = test system: T47D
# [14] = test system: ACHN
# [15] = test system: NCI-H226
# [16] = test system: NCI-H522
# [17] = test system: U-251
# [18] = test system: MDA-MB-231
# [19] = test system: NCI-H460
SMILES,GI50 [1],GI50 [2],GI50 [3],GI50 [4],GI50 [5],GI50 [6],GI50 [7],GI50 [8],GI50 [9],GI50 [10],GI50 [11],GI50 [12],GI50 [13],GI50 [14],GI50 [15],GI50 [16],GI50 [17],GI50 [18],GI50 [19]
Cn1c2ccccc2c(=O)c2ccc(Cl)cc21,> 10 µM (inactive),> 10 µM (inactive),1.38 µM (inactive),> 10 µM (inactive),> 10 µM (inactive),> 10 µM (inactive),> 10 µM (inactive),> 10 µM (inactive),> 10 µM (inactive),> 10 µM (inactive),> 10 µM (inactive),> 10 µM (inactive),> 10 µM (inactive),–,–,–,–,–,–
COc1ccc(/C=C/COC(C)=O)cc1OC,–,> 100 µM (inactive),> 100 µM (inactive),> 100 µM (inactive),86.5 µM (inactive),> 100 µM (inactive),–,> 100 µM (inactive),–,> 100 µM (inactive),> 100 µM (inactive),> 100 µM (inactive),–,> 100 µM (inactive),> 100 µM (inactive),> 100 µM (inactive),> 100 µM (inactive),–,–
CCOC(=O)c1nc2ccccc2nc1Nc1cc(OC)c(OC)c(OC)c1,> 100 µM (inactive),> 100 µM (inactive),> 100 µM (inactive),> 100 µM (inactive),> 100 µM (inactive),> 100 µM (inactive),> 100 µM (inactive),> 100 µM (inactive),–,> 100 µM (inactive),–,> 100 µM (inactive),> 100 µM (inactive),> 100 µM (inactive),–,> 100 µM (inactive),> 100 µM (inactive),> 100 µM (inactive),> 100 µM (inactive)
O=C(CNc1ccccc1Cl)Nn1c(-c2ccccc2)nc2ccccc2c1=O,13.4 µM (inactive),17.9 µM (inactive),18.6 µM (inactive),19.5 µM (inactive),13.4 µM (inactive),23.2 µM (inactive),18.5 µM (inactive),23.1 µM (inactive),20.7 µM (inactive),28.7 µM (inactive),20.3 µM (inactive),21.2 µM (inactive),–,37.4 µM (inactive),28.5 µM (inactive),> 10 µM (inactive),17.4 µM (inactive),> 10 µM (inactive),78.5 µM (inactive)
COc1ccc(CNc2nc3cc(C(F)(F)F)ccc3nc2-c2ccccc2)cc1OC,22.6 µM (inactive),35.1 µM (inactive),18.7 µM (inactive),22.6 µM (inactive),–,26.1 µM (inactive),25.5 µM (inactive),96.8 µM (inactive),28.2 µM (inactive),–,22.8 µM (inactive),–,24.3 µM (inactive),23.8 µM (inactive),–,36.1 µM (inactive),–,53.8 µM (inactive),19.5 µM (inactive)
CC1=C(\C=C/C(C)=C/C=C/C(C)=C/C=C/C=C(C)\C=C\C=C(C)/C=C/C2=C(C)CCCC2(C)C)C(C)(C)CCC1,> 100 µM (inactive),52.6 µM (inactive),–,> 100 µM (inactive),–,> 100 µM (inactive),68.9 µM (inactive),> 100 µM (inactive),> 100 µM (inactive),–,33 µM (inactive),46.5 µM (inactive),19.5 µM (inactive),> 100 µM (inactive),> 100 µM (inactive),35.4 µM (inactive),56.2 µM (inactive),> 100 µM (inactive),> 100 µM (inactive)
O=S(=O)(NC1CCCCC1)c1ccc2c(c1)OCCOCCOCCOCCO2,> 100 µM (inactive),> 100 µM (inactive),> 100 µM (inactive),> 100 µM (inactive),–,> 100 µM (inactive),> 100 µM (inactive),–,> 100 µM (inactive),> 100 µM (inactive),–,> 100 µM (inactive),> 100 µM (inactive),> 100 µM (inactive),> 100 µM (inactive),> 100 µM (inactive),–,> 100 µM (inactive),> 100 µM (inactive)
O=C1CCC2(CC1)Cc1ccccc1C2O (stereo not given),> 100 µM (inactive),> 100 µM (inactive),> 100 µM (inactive),> 100 µM (inactive),–,> 100 µM (inactive),–,–,> 100 µM (inactive),–,–,> 100 µM (inactive),> 100 µM (inactive),> 100 µM (inactive),> 100 µM (inactive),> 100 µM (inactive),> 100 µM (inactive),> 100 µM (inactive),> 100 µM (inactive)
Nc1ccc(-c2cssc2=S)cc1,–,42.2 µM (inactive),41.6 µM (inactive),29.2 µM (inactive),56.2 µM (inactive),3.21 µM (inactive),35.1 µM (inactive),–,41.9 µM (inactive),0.836 µM (active),29.8 µM (inactive),49.7 µM (inactive),–,38.1 µM (inactive),56.5 µM (inactive),26.9 µM (inactive),40.7 µM (inactive),39.3 µM (inactive),33.9 µM (inactive)
